Data reported in PMC4199632, “Exploring the Anti-Cancer Activity of Novel Thiosemicarbazones Generated through the Combination of Retro-Fragments: Dissection of Critical Structure-Activity Relationships” (PLoS ONE, 2014).

System: normal human dermal fibroblast (NHDF) cells
Test: Proliferation assay (MTS, 96 h), normal mortal cells
Type: cell-based
Conditions: Homo sapiens, NHDF, 96 h, 96 h incubation, mean ±SD (3 experiments)
Experimental: (§1) The human cancer cell types (neuroepithelioma (SK-N-MC), colon cancer (HCT116 with wild-type p53 (p53^+/+)), Burkitt's lymphoma (Raji) and cervical carcinoma (HeLa)) cells and normal human dermal fibroblasts (NHDF) were obtained from the American Type Culture Collection (ATCC, Manassas, VA, USA). HCT116 null p53 (p53^−/−) cells were obtained from the Maria Sklodowska-Curie Memorial Cancer Center and Institute of Oncology, Poland.
(§2) The SK-N-MC cells were cultured in minimum essential medium (MEM; Life Technologies, Grand Island, New York, USA) containing 10% (v/v) fetal bovine serum (FBS; Life Technologies), 1 mM sodium pyruvate (Life Technologies), 1% (v/v) non-essential amino acids (Life Technologies), 2 mM L-glutamine (Life Technologies), 100 U/mL penicillin (Life Technologies), 100 µg/mL streptomycin (Life Technologies) and 0.28 µg/mL fungizone (Bristol Myers Squibb Pharmaceuticals, Montreal, Canada). The HCT116 and NHDF cells were grown in Dulbecco's modified Eagle's medium (DMEM; Sigma-Aldrich) supplemented with 12% (v/v) heat-inactivated FBS (HCT116; Life Technologies) or 15% (v/v) FBS (NHDF; Life Technologies), 100 µg/mL of gentamicin (Polfa Warszawa S.A., Warsaw, Poland), 100 µg/mL of streptomycin (Polfa) and 100 U/mL of penicillin (Polfa). The Raji and HeLa cells were cultured in Roswell Park Memorial Institute medium (RPMI-1640; Sigma-Aldrich) with the addition of 10% (v/v) heat-inactivated FBS (Life Technologies) and the supplements described for SK-N-MC cells above. All cell lines were cultured under standard conditions at 37°C in a humidified atmosphere at 5% CO2 and were subcultured every 3–4 days as required.
(§3) The cells were seeded in 96-well plates (SK-N-MC: 1.5×10^4 cells/well; HeLa: 5.0×10^3 cells/well; Raji: 3.0×10^3 cells/well; HCT116: 3.5×10^3 cells/well; NHDF: 3.0×10^3 cells/well) 24 h prior to the addition of the novel compounds. The assays were performed using a 72 h (SK-N-MC, Raji, HeLa) or 96 h (HCT 116, NHDF) incubation period with the agents at 37°C. […] Additionally, DFO and Dp44mT were included as positive controls in all experiments as their activity is well characterized, [42], [50].
(§4) Chelator stock solutions were prepared in DMSO and diluted in media so that the final [DMSO] <0.05%. The results were expressed as a percentage of the control and the resulting IC50 values were calculated using GraphPad Prism 5 (GraphPad Software, Inc., La Jolla, CA, USA). The IC50 was defined as the concentration necessary to reduce the absorbance to 50% of the untreated control. Each individual compound was tested in triplicate in a single experiment, with each experiment being repeated three times. After incubation of HCT 116 and NHDF cells with the tested compounds, 20 µL of the CellTiter 96 Aqueous One Solution - MTS (Promega, Madison, WI, USA) solution was added to each well (with 100 µL of DMEM without phenol red) and incubated for 1 h/37°C. The optical density of the samples was analyzed at 490 nm.

Structure (SMILES)	IC50
S=C(N/N=C/c1cnc2ccccc2n1)N1CCN(c2ccccn2)CC1 [5d]	7.13 ± 0.82 µM
CCN1CCN(C(=S)N/N=C/c2ccc3cccc(O)c3n2)CC1 [3a]	15.8 ± 4.6 µM
S=C(N/N=C/c1ccc2ccccc2n1)N1CCOCC1 [2c]	3.27 ± 0.88 µM
Oc1cccc2ccc(/C=N/NC(=S)N3CCN(c4ccccn4)CC3)nc12 [3d]	10.2 ± 2.4 µM
CCN1CCN(C(=S)N/N=C/c2cnc3ccccc3n2)CC1 [5a]	2.73 ± 1.77 µM
S=C(N/N=C/c1cnc2ccccc2n1)N1CCN(c2ccccc2)CC1 [5b]	9.61 ± 0.9 µM
Oc1ccc2cccnc2c1/C=N/NC(=S)N1CCN(c2cnccn2)CC1 [4e]	9.56 ± 1.44 µM

System: SK-N-MC neuroepithelioma cells
Test: Proliferation assay (MTT, 72 h)
Type: cell-based
Conditions: Homo sapiens, 72 h incubation, mean ±SD (3 experiments)
Experimental: as §1, §2, §3, §4
(§5) MTT (3-[4,5-dimethylthiazol-2-yl]-2,5-diphenyltetrazolium bromide) was used to evaluate the anti-proliferative effects of the chelators in SK-N-MC and Raji cells. Following incubation with the investigated compounds, 10 µL of MTT (5 mg/mL in PBS; Sigma-Aldrich) was added to each well. After a 2 h (SK-N-MC) or 4 h (Raji) incubation, the plates were centrifuged, and the cells were lysed with 100 µL of 10% SDS-50% isobutanol in 0.01 M HCl (SK-N-MC) or DMSO (Raji). The absorbance was measured at 570 nm. The anti-proliferative effects of these novel agents on HeLa cells were estimated using crystal violet staining (0.5% crystal violet solution for 10 min). Finally, the wells were rinsed with water and the cells were lysed with 2% SDS. The optical density of the samples was analyzed at 595 nm.

Structure (SMILES)	IC50
CCN1CCN(C(=S)N/N=C/c2ccc3cccc(O)c3n2)CC1 [3a]	0.82 ± 0.61 µM
S=C(N/N=C/c1ccc2ccccc2n1)N1CCOCC1 [2c]	1.4 ± 0.69 µM

Now from value to compound:

IC50	Structure (SMILES)
2.33 ± 0.09 µM	S=C(N/N=C/c1cnc2ccccc2n1)N1CCN(c2ccccn2)CC1 [5d]
> 6.25 µM	Oc1cccc2ccc(/C=N/NC(=S)N3CCN(c4ccccn4)CC3)nc12 [3d]
3.44 ± 1.12 µM	S=C(N/N=C/c1cnc2ccccc2n1)N1CCN(c2ccccc2)CC1 [5b]
4.17 ± 1.44 µM	Oc1ccc2cccnc2c1/C=N/NC(=S)N1CCN(c2cnccn2)CC1 [4e]

System: Raji Burkitt's lymphoma cells
Test: Proliferation assay (MTT, 72 h)
Type: cell-based
Conditions: Homo sapiens, 72 h incubation, mean ±SD (3 experiments)
Experimental: as §1, §2, §3, §4, §5

Structure (SMILES)	IC50
CCN1CCN(C(=S)N/N=C/c2ccc3cccc(O)c3n2)CC1 [3a]	0.2 ± 0.02 µM
S=C(N/N=C/c1ccc2ccccc2n1)N1CCOCC1 [2c]	0.06 ± 0.01 µM

Continued, values first:

IC50	Structure (SMILES)
0.49 ± 0.09 µM	S=C(N/N=C/c1cnc2ccccc2n1)N1CCN(c2ccccn2)CC1 [5d]
0.12 ± 0.04 µM	Oc1cccc2ccc(/C=N/NC(=S)N3CCN(c4ccccn4)CC3)nc12 [3d]
0.11 ± 0.02 µM	CCN1CCN(C(=S)N/N=C/c2cnc3ccccc3n2)CC1 [5a]
0.5 ± 0.05 µM	S=C(N/N=C/c1cnc2ccccc2n1)N1CCN(c2ccccc2)CC1 [5b]
4.55 ± 2.52 µM	Oc1ccc2cccnc2c1/C=N/NC(=S)N1CCN(c2cnccn2)CC1 [4e]

System: HeLa cervical carcinoma cells
Test: Proliferation assay (crystal violet, 72 h)
Type: cell-based
Conditions: Homo sapiens, 72 h incubation, mean ±SD (3 experiments)
Experimental: as §1, §2, §3, §4, §5

Structure (SMILES)	IC50
CCN1CCN(C(=S)N/N=C/c2ccc3cccc(O)c3n2)CC1 [3a]	3.41 ± 1.46 µM
S=C(N/N=C/c1ccc2ccccc2n1)N1CCOCC1 [2c]	1.75 ± 0.33 µM

The next lines start with the values.

IC50	Structure (SMILES)
1.78 ± 0.77 µM	S=C(N/N=C/c1cnc2ccccc2n1)N1CCN(c2ccccn2)CC1 [5d]
6.59 ± 0.13 µM	Oc1cccc2ccc(/C=N/NC(=S)N3CCN(c4ccccn4)CC3)nc12 [3d]
1.12 ± 0.03 µM	CCN1CCN(C(=S)N/N=C/c2cnc3ccccc3n2)CC1 [5a]
6.05 ± 2.73 µM	S=C(N/N=C/c1cnc2ccccc2n1)N1CCN(c2ccccc2)CC1 [5b]
3.49 ± 0.04 µM	Oc1ccc2cccnc2c1/C=N/NC(=S)N1CCN(c2cnccn2)CC1 [4e]

System: not listed separately
Test: Ascorbate oxidation assay (iron complexes)
Type: biochemical
Conditions: iron complex, IBE 0.1; FeIII 10 µM, ascorbate 100 µM
Experimental: The ability of the iron complexes of the novel ligands to mediate the oxidation of the physiological substrate, ascorbate, was examined using established methods, [18], [22], [52], [53]. Ascorbic acid (100 µM) was prepared immediately prior to each experiment and was incubated in the presence of Fe^III (10 µM; as FeCl3), the chelator (1–60 µM) and a 50-fold molar excess of citrate (500 µM). The absorbance at 265 nm was measured after 10 and 40 min and the difference in absorbance at these time points was calculated. The results of these experiments were expressed as iron-binding equivalents (IBE) due to the different denticity of the chelators examined. The chelators, Dp44mT, DFO and ethylenediaminetetraacetic acid (EDTA) were used as controls as the ability of their iron complexes to oxidize ascorbate has been extensively characterized, [15], [52], [53].
The ability of the iron complexes of the novel TSCs to catalyze the oxidation of the physiological substrate, ascorbate, was important to assess as redox cycling may play a critical role in their anti-proliferative activity, [15], [18], [52], [53]. Thus, the oxidation of ascorbate mediated by the iron complexes of series 1–6 were examined in comparison to the iron complexes of the control compounds, DFO, EDTA and Dp44mT, as the ability of the latter to oxidize ascorbate is well characterized, [15], [52], [53], [68]. The results were expressed as a percentage of the control (no chelator) at iron-binding equivalents (IBEs) of 0.1 (excess “free” iron), 1 (iron-chelator complexes with a fully filled coordination sphere), or 3 (excess free chelator), due to the different denticity of the chelators examined (Fig. 10).
Figure 10 Effect of the iron complexes of (A) series 1, (B) series 2, (C) series 3, (D) series 4, (E) series 5 and (F) series 6 chelators, relative to DFO, Dp44mT and EDTA, on ascorbate oxidation. Chelators at iron-binding equivalent (IBE) ratios of 0.1, 1, and 3 were incubated in the presence of Fe^III (10 µM) and ascorbate (100 µM). The UV-Vis absorbance at 265 nm was recorded after 10 and 40 min, and the difference between the time points was calculated. Results are mean ±SD (3 experiments).

Structure (SMILES)	Ascorbate oxidation (% of the control)
O=C(O)CN(CCN(CC(=O)O)CC(=O)O)CC(=O)O [EDTA, ethylenediaminetetraacetic acid, reference compound]	208%

Same assay, conditions: iron complex, IBE 1; FeIII 10 µM, ascorbate 100 µM

Structure (SMILES)	Ascorbate oxidation (% of the control)
O=C(O)CN(CCN(CC(=O)O)CC(=O)O)CC(=O)O [EDTA, ethylenediaminetetraacetic acid, reference compound]	449%

Same assay, conditions: iron complex, IBE 3

Structure (SMILES)	Ascorbate oxidation compared with controls
S=C(N/N=C/c1cnc2ccccc2n1)N1CCN(c2ccccn2)CC1 [5d]	decreased ascorbate oxidation relative to the control
CCN1CCN(C(=S)N/N=C/c2ccc3cccc(O)c3n2)CC1 [3a]	increased levels of ascorbate oxidation

Same assay, conditions: iron complex, IBE 3; FeIII 10 µM, ascorbate 100 µM

Structure (SMILES)	Ascorbate oxidation (% of the control)
O=C(O)CN(CCN(CC(=O)O)CC(=O)O)CC(=O)O [EDTA, ethylenediaminetetraacetic acid, reference compound]	936%

System: HCT116 p53−/− colon cancer cells
Test: Proliferation assay (MTS, 96 h)
Type: cell-based, human
Conditions: Homo sapiens, HCT-116, 96 h, 96 h incubation, MTS; mean ±SD (3 experiments)
Experimental: as §1, §2, §3, §4

Structure (SMILES)	IC50
CCN1CCN(C(=S)N/N=C/c2ccc3cccc(O)c3n2)CC1 [3a]	8.83 ± 0.63 µM
S=C(N/N=C/c1ccc2ccccc2n1)N1CCOCC1 [2c]	1.56 ± 1.12 µM

More lines, now with the values ahead:

IC50	Structure (SMILES)
9.41 ± 1.04 µM	S=C(N/N=C/c1cnc2ccccc2n1)N1CCN(c2ccccn2)CC1 [5d]
8.46 ± 0.25 µM	Oc1cccc2ccc(/C=N/NC(=S)N3CCN(c4ccccn4)CC3)nc12 [3d]
8.72 ± 1.64 µM	CCN1CCN(C(=S)N/N=C/c2cnc3ccccc3n2)CC1 [5a]
2.24 ± 1.47 µM	S=C(N/N=C/c1cnc2ccccc2n1)N1CCN(c2ccccc2)CC1 [5b]
9.44 ± 1.35 µM	Oc1ccc2cccnc2c1/C=N/NC(=S)N1CCN(c2cnccn2)CC1 [4e]

System: HCT116 p53+/+ colon cancer cells
Test: Proliferation assay (MTS, 96 h)
Type: cell-based, human
Conditions: Homo sapiens, HCT-116; 96 h incubation, MTS; mean ±SD (3 experiments)
Experimental: as §1, §2, §3, §4

Structure (SMILES)	IC50
CCN1CCN(C(=S)N/N=C/c2ccc3cccc(O)c3n2)CC1 [3a]	9.25 ± 1.42 µM
S=C(N/N=C/c1ccc2ccccc2n1)N1CCOCC1 [2c]	1.49 ± 0.02 µM

Now from value to compound:

IC50	Structure (SMILES)
9.4 ± 0.8 µM	S=C(N/N=C/c1cnc2ccccc2n1)N1CCN(c2ccccn2)CC1 [5d]
8.41 ± 1.78 µM	Oc1cccc2ccc(/C=N/NC(=S)N3CCN(c4ccccn4)CC3)nc12 [3d]
6.15 ± 1.28 µM	CCN1CCN(C(=S)N/N=C/c2cnc3ccccc3n2)CC1 [5a]
3.92 ± 0.74 µM	S=C(N/N=C/c1cnc2ccccc2n1)N1CCN(c2ccccc2)CC1 [5b]
10.1 ± 0.7 µM	Oc1ccc2cccnc2c1/C=N/NC(=S)N1CCN(c2cnccn2)CC1 [4e]
